Measurements published in patent US20190142881A1, “BACTERIOPHAGE COMPOSITIONS AND USES THEREOF” (priority 2016, published 2019).
Converted amounts (≈) assume the structure as drawn. Read-outs that look alike come from different tables or passages of the source.

Assays:
[1] = test system: environmental and clinical P. aeruginosa strains; test: MIC trade-off assay, phage-resistant mutants of environmental and clinical strains; assay type: cell-based, Pseudomonas aeruginosa; details: majority of outcomes showing statistical significance
strain PA01 ΔoprM = test: Minimum inhibitory concentration (eTest strip) on knockout PA01 ΔoprM; assay type: cell-based; details: Pseudomonas aeruginosa
Description: (§1) Bacterial strains were grown overnight at 37° C. as described above. A 200 μL sample of the culture was then spread onto an LB agar plate, and allowed to dry for 10 minutes, followed by application of an eTestStrip (BioMerieux) for a test antibiotic. […] Each strain was tested in triplicate for each antibiotic.
(§2) The effects of phage resistance on sensitivity to the four drugs was tested in replicated assays with PA01 and PA14, as well as with three environmental strains (PAN, 1607, 1845) and three clinical isolates (PAPS, PASk, PADFU). In these assays, the phage-OMKO1 resistant strain was either a knockout mutant (ΔoprM derived from PA01), or an independently derived spontaneous mutant of the associated parental strain.

[2] = test system: P. aeruginosa isolated from the patient, susceptible to phage OMKO1; test: MIC by eTest strip, patient isolate before phage exposure; assay type: cell-based, Pseudomonas aeruginosa
Description: as §1
(§3) P. aeruginosa isolated from the patient was subjected to Deep Sequencing (Next Generation Sequencing) on the Illumina HiSeq 2000 platform to confirm species identity and presence of genes known to be associated with efflux-pump mechanisms for resistance to antibiotics. Furthermore, a trade-off between phage OMKO1 sensitivity and antibiotic susceptibility was confirmed as per methods disclosed elsewhere herein (FIG. 5). Phage OMKO1 was sequenced also on the HiSeq 2000 platform and found to be in the PhiKZ-like virus genus.

[3] = test system: 72-hour-old P. aeruginosa biofilms; test: Biofilm elimination assays on prosthetic materials; details: single agent (antibiotics at 2×MIC)
[4] = test system: strain ΔmexR (derived from PA01); test: Minimum inhibitory concentration (eTest strip) on control knockout ΔmexR; assay type: cell-based; details: Pseudomonas aeruginosa, average ± SD, phage-sensitive, over-expresses Mex systems
Description: as §1
As a control for transposon insertion, strain ΔmexR, which was also derived from PA01, was examined. mexR, the repressor of MexAB-OprM and MexXY-OprM operons should not negatively alter phage sensitivity.

[5] = test system: P. aeruginosa isolated from the patient, resistant to phage OMKO1; test: MIC by eTest strip, patient isolate after evolved resistance to phage OMKO1; assay type: cell-based, Pseudomonas aeruginosa
Description: (§4) Phage OMKO1 was amplified on P. aeruginosa in liquid culture in conditions identical to the Serial passage assays. Following 12 hours of amplification, 100 μl of culture was plated on LB agar and incubated for 12 hours. Individual colony-forming units (CFUs) were then collected, and verified to be phage resistant by classic ‘spot tests’ (i.e., 10^7 PFU of phage OMKO1 was pipetted onto a lawn of each bacterial isolate to test whether the phage was capable of visibly clearing the lawn [indicating bacterial sensitivity to phage] versus incapable of clearing the lawn [indicating bacterial resistance to phage]).
as §1, §3

[6] = test system: environmental isolates (PAN, 1607, 1845); test: MIC trade-off assay, phage-resistant mutants of environmental isolates; assay type: cell-based, Pseudomonas aeruginosa; details: phage-resistant mutant versus parental strain
Description: as §4, §1, §2

[7] = Pseudomonas aeruginosa, read-out: MIC
[8] = Dacron sections, 24 h treatment, regrowth OD600

Compound	change in drug sensitivity on phage resistance [1]	MIC (strain PA01 ΔoprM)	MIC [2, 7]	elimination of 72-hour biofilms [3, 8]	elimination of 72-hour biofilms ([3]; Gore-Tex sections)	elimination of 72-hour biofilms ([3]; felt pieces)	elimination of 72-hour biofilms ([3]; polypropylene suture)	MIC [4]	MIC ([5]; Pseudomonas aeruginosa)	change in antibiotic sensitivity on resistance to phage OMKO1 [6]	MIC [2]	MIC ([5]; eTest strip, after evolved resistance to phage OMKO1)
CC(C)(O/N=C(\C(=O)N[C@@H]1C(=O)N2C(C(=O)[O-])=C(C[n+]3ccccc3)CS[C@H]12)c1csc(N)n1)C(=O)O [CAZ, Ceftazidime]	greater drug sensitivity	0.21 ± 0.144 µg/mL (≈ 0.384 µM)	1.67 µg/mL (≈ 3.05 µM)	Neither ciprofloxacin nor ceftazidime at 2×MIC was sufficient to eliminate 72 hour biofilms	unable to remove 72-hour biofilms	neither antibiotic alone significantly removed 72-hour biofilms	not by antibiotics at 2×MIC	1.33 ± 0.035 µg/mL (≈ 2.44 µM)	0.35 µg/mL (≈ 0.64 µM)	–	–	–
O=C(O)c1cn(C2CC2)c2cc(N3CCNCC3)c(F)cc2c1=O [CIP, Ciprofloxacin]	–	0.016 µg/mL (≈ 0.0483 µM)	1.17 µg/mL (≈ 3.54 µM)	Neither ciprofloxacin nor ceftazidime at 2×MIC was sufficient to eliminate 72 hour biofilms	unable to remove 72-hour biofilms	neither antibiotic alone significantly removed 72-hour biofilms	not by antibiotics at 2×MIC	32 µg/mL (≈ 96.6 µM)	0.014 µg/mL (≈ 0.0423 µM)	–	–	–
CC[C@H]1OC(=O)[C@H](C)[C@@H](O[C@H]2C[C@@](C)(OC)[C@@H](O)[C@H](C)O2)[C@H](C)[C@@H](O[C@@H]2O[C@H](C)C[C@H](N(C)C)[C@H]2O)[C@](C)(O)C[C@@H](C)C(=O)[C@H](C)[C@@H](O)[C@]1(C)O [EM, Erythromycin]	–	4.67 µg/mL (≈ 6.36 µM)	–	–	–	–	–	256 ± 0.577 µg/mL (≈ 349 µM)	–	increased sensitivity	–	–
CN(C)[C@@H]1C(O)=C(C(N)=O)C(=O)[C@@]2(O)C(O)=C3C(=O)c4c(O)cccc4[C@@](C)(O)[C@H]3C[C@@H]12 [TET, Tetracycline]	–	2 µg/mL (≈ 4.5 µM)	–	–	–	–	–	256 µg/mL (≈ 576 µM)	–	–	–	–
NC[C@H]1O[C@H](O[C@H]2[C@H](O)[C@@H](O[C@H]3O[C@H](CO)[C@@H](O)[C@H](N)[C@H]3O)[C@H](N)C[C@@H]2N)[C@H](N)C[C@@H]1O [tobramycin]	–	–	11.3 µg/mL (≈ 24.2 µM)	–	–	–	–	–	3.67 µg/mL (≈ 7.84 µM)	–	–	–
gentamicin	–	–	–	–	–	–	–	–	–	–	3.7 µg/mL	0.833 µg/mL
